Tests used:
Assay in all cases: Example 1: quantification of 4M3H on cotton fabric with 14-methylhexadecanoic acid
M. osloensis NCIMB10693 = type: cell-based, Moraxella osloensis; conditions: M. osloensis NCIMB10693, cotton fabric with 14-methylhexadecanoic acid, 37° C., 24 hours, vs sterilized water
Procedure: (§1) 10 mL of methanol was added to the towel that had been left to stand still for 24 hours, and 1 mL of the methanol was mixed with 1 mL of ADAM (9-anthrydiazomethanene, manufactured by Funakoshi Corp., 0.1 w/v %). The mixture was left to stand for 60 minutes at room temperature, and thus derivatization was carried out.
(§2) Thereafter, 10 μL of the solution was analyzed by using LC-FL (liquid chromatography apparatus: HITACHI ELITE LaChrom (trade name, manufactured by Hitachi, Ltd.), column: Lichrosphere 100 RP-8(e) (trade name, manufactured by Agilent Technologies, Inc., 5 μm×125 mm×4 mmφ), column temperature: 40° C., eluent a mixed solution of acetonitrile/water=7/3 (volume ratio), flow rate: 1.0 mL/min, detector: excitation wavelength (365 nm), measurement wavelength (412 nm)), and thereby quantification of 4M3H thus produced was carried out. In regard to the amount of production of 4M3H, a sample which produced 4M3H in an amount of more than 1 μg was rated as “[…]”; a sample which produced 4M3H in an amount of more than 0.1 μg and 1 μg or less was rated as “∘”; a sample which produced 4M3H in an amount of more than 0 μg and 0.1 μg or less was rated as “Δ”; and a sample in which no 4M3H was detected was rated as “x”.
(§3) One platinum loop of each of Moraxella osloensis NCIMB10693, Moraxella sp. 4-1, Psychrobacter pacificensis NBRC103191, Psychrobacter glacincola NCIMB101053, Pseudomonas alcaligenes No. 41, Acinetobacter calcoaceticus HH2BD-49, Saccaromyces cerevisiae NBRC1661, Rhodotorula mucilaginosa NBRC0909 and Rhodotorula slooffiae 13c was inoculated into 5 mL of a SCD liquid medium (manufactured by Nihon Pharmaceutical Co., Ltd.), and the microbial cells were subjected to shaking culture (160 rpm) at 35° C. for 24 hours. The microbial cells obtained after culture were centrifuged (8000×g, 10 minutes), the supernatant was removed, and then the microbial cells were suspended in 5 mL of physiological saline. The suspension was centrifuged again (8000×g, 10 minutes), subsequently the supernatant was removed, and a microbial suspension was prepared by using physiological saline such that the OD600 would be 0.1.
(§4) Furthermore, 0.1 mL each of 10-ppm or 100-ppm aqueous solutions of the compounds shown in the following Table 6 was applied on the fabric described above. As a control, a fabric on which sterilized water was applied instead of the compounds described below was also prepared.
(§5) On a plain-woven cotton fabric prepared as described above, 0.1 mL each of the various microbial suspensions was inoculated, and the samples were left to stand still under humidified conditions at 37° C. for 24 hours and were subjected to an evaluation such as described below.
(§6) Quantification of 4M3H was carried out by the same method as that used in Test Example 3, and by taking as a reference the 4M3H production amount of a sample on which sterilized water was applied as a test substance, the 4M3H production amounts in the case of applying other test substances were evaluated on the basis of the following criteria. • A: (4M3H production amount in the case of applying a test substance)<( 1/100 of the 4M3H production amount in the case of applying sterilized water) • B: ( 1/100 of the 4M3H production amount in the case of applying sterilized water)≦(4M3H production amount in the case of applying a test substance)<( 1/10 of the 4M3H production amount in the case of applying sterilized water) • C: ( 1/10 of the 4M3H production amount in the case of applying sterilized water)≦(4M3H production amount in the case of applying a test substance)<(4M3H production amount in the case of applying sterilized water) • D: (4M3H production amount in the case of applying sterilized water)≦(4M3H production amount in the case of applying a test substance)

[1] = system: P. pacificensis NBRC103191; type: cell-based, Psychrobacter pacificensis; conditions: 37° C., 24 hours, vs sterilized water
Procedure: as §1, §2, §3, §4, §5, §6

S. cerevisiae NBRC1661 = type: cell-based, Saccaromyces cerevisiae; conditions: 37° C., 24 hours, vs sterilized water
Procedure: as §1, §2, §3, §4, §5, §6

R. muculaginosa NBRC0909 = type: cell-based, Rhodotorula mucilaginosa; conditions: 37° C., 24 hours, vs sterilized water
Procedure: as §1, §2, §3, §4, §5, §6

P. alcaligenes No. 41 = type: cell-based, Pseudomonas alcaligenes; conditions: 37° C., 24 hours, vs sterilized water
Procedure: as §1, §2, §3, §4, §5, §6

Moraxella sp. 4-1 = type: cell-based; conditions: 37° C., 24 hours, vs sterilized water
Procedure: as §1, §2, §3, §4, §5, §6

P. glacincola NBRC101053 = type: cell-based, Psychrobacter glacincola; conditions: 37° C., 24 hours, vs sterilized water
Procedure: as §1, §2, §3, §4, §5, §6

R. slooffiae 13c = type: cell-based, Rhodotorula slooffiae; conditions: 37° C., 24 hours, vs sterilized water
Procedure: as §1, §2, §3, §4, §5, §6

[2] = system: A. calcoaceticus HH2BD-49; type: cell-based, Acinetobacter calcoaceticus; conditions: 37° C., 24 hours, vs sterilized water
Procedure: as §1, §2, §3, §4, §5, §6

[3] = Faucicola osloensis, 100 ppm test substance, read-out: Production amount of 4M3H

CCCCCCCC/C=C\CCCCCCCC(=O)O [Oleic acid]
activity at 100 ppm (M. osloensis NCIMB10693; [3]): 1 to 10%
Production amount of 4M3H ([1]; 100 ppm test substance): C (( 1/10 of the 4M3H production amount in the case of applying sterilized water)≦(4M3H production amount in the case of applying a test substance)<(4M3H production amount in the case of applying sterilized water))
Production amount of 4M3H (S. cerevisiae NBRC1661; 100 ppm test substance): B (( 1/100 of the 4M3H production amount in the case of applying sterilized water)≦(4M3H production amount in the case of applying a test substance)<( 1/10 of the 4M3H production amount in the case of applying sterilized water))
Production amount of 4M3H (R. muculaginosa NBRC0909; 100 ppm test substance): B (( 1/100 of the 4M3H production amount in the case of applying sterilized water)≦(4M3H production amount in the case of applying a test substance)<( 1/10 of the 4M3H production amount in the case of applying sterilized water))
Production amount of 4M3H (P. alcaligenes No. 41; 100 ppm test substance): C (( 1/10 of the 4M3H production amount in the case of applying sterilized water)≦(4M3H production amount in the case of applying a test substance)<(4M3H production amount in the case of applying sterilized water))
Production amount of 4M3H (Moraxella sp. 4-1; 100 ppm test substance): B (( 1/100 of the 4M3H production amount in the case of applying sterilized water)≦(4M3H production amount in the case of applying a test substance)<( 1/10 of the 4M3H production amount in the case of applying sterilized water))
Production amount of 4M3H (P. glacincola NBRC101053; 100 ppm test substance): A ((4M3H production amount in the case of applying a test substance)<( 1/100 of the 4M3H production amount in the case of applying sterilized water))
Production amount of 4M3H (R. slooffiae 13c; 100 ppm test substance): C (( 1/10 of the 4M3H production amount in the case of applying sterilized water)≦(4M3H production amount in the case of applying a test substance)<(4M3H production amount in the case of applying sterilized water))
Production amount of 4M3H ([2]; 100 ppm test substance): C (( 1/10 of the 4M3H production amount in the case of applying sterilized water)≦(4M3H production amount in the case of applying a test substance)<(4M3H production amount in the case of applying sterilized water))

Alkyl benzyl dimethyl ammonium chloride
Production amount of 4M3H (M. osloensis NCIMB10693; 100 ppm test substance): D ((4M3H production amount in the case of applying sterilized water)≦(4M3H production amount in the case of applying a test substance))
Production amount of 4M3H ([1]; 100 ppm test substance): D ((4M3H production amount in the case of applying sterilized water)≦(4M3H production amount in the case of applying a test substance))
Production amount of 4M3H (S. cerevisiae NBRC1661; 100 ppm test substance): C (( 1/10 of the 4M3H production amount in the case of applying sterilized water)≦(4M3H production amount in the case of applying a test substance)<(4M3H production amount in the case of applying sterilized water))
Production amount of 4M3H (R. muculaginosa NBRC0909; 100 ppm test substance): D ((4M3H production amount in the case of applying sterilized water)≦(4M3H production amount in the case of applying a test substance))
Production amount of 4M3H (P. alcaligenes No. 41; 100 ppm test substance): D ((4M3H production amount in the case of applying sterilized water)≦(4M3H production amount in the case of applying a test substance))
Production amount of 4M3H (Moraxella sp. 4-1; 100 ppm test substance): D ((4M3H production amount in the case of applying sterilized water)≦(4M3H production amount in the case of applying a test substance))
Production amount of 4M3H (P. glacincola NBRC101053; 100 ppm test substance): C (( 1/10 of the 4M3H production amount in the case of applying sterilized water)≦(4M3H production amount in the case of applying a test substance)<(4M3H production amount in the case of applying sterilized water))
Production amount of 4M3H (R. slooffiae 13c; 100 ppm test substance): D ((4M3H production amount in the case of applying sterilized water)≦(4M3H production amount in the case of applying a test substance))
Production amount of 4M3H ([2]; 100 ppm test substance): D ((4M3H production amount in the case of applying sterilized water)≦(4M3H production amount in the case of applying a test substance))

Cc1ccc(C(C)C)c(O)c1 [Thymol]
activity at 10 ppm (M. osloensis NCIMB10693; Faucicola osloensis, 10 ppm test substance, read-out: Production amount of 4M3H): 1 to 10%
activity at 100 ppm (M. osloensis NCIMB10693; [3]): < 1%
Production amount of 4M3H ([1]; 10 ppm test substance): D ((4M3H production amount in the case of applying sterilized water)≦(4M3H production amount in the case of applying a test substance))
Production amount of 4M3H ([1]; 100 ppm test substance): B (( 1/100 of the 4M3H production amount in the case of applying sterilized water)≦(4M3H production amount in the case of applying a test substance)<( 1/10 of the 4M3H production amount in the case of applying sterilized water))
Production amount of 4M3H (S. cerevisiae NBRC1661; 10 ppm test substance): C (( 1/10 of the 4M3H production amount in the case of applying sterilized water)≦(4M3H production amount in the case of applying a test substance)<(4M3H production amount in the case of applying sterilized water))
Production amount of 4M3H (S. cerevisiae NBRC1661; 100 ppm test substance): D ((4M3H production amount in the case of applying sterilized water)≦(4M3H production amount in the case of applying a test substance))
Production amount of 4M3H (R. muculaginosa NBRC0909; 10 ppm test substance): D ((4M3H production amount in the case of applying sterilized water)≦(4M3H production amount in the case of applying a test substance))
Production amount of 4M3H (R. muculaginosa NBRC0909; 100 ppm test substance): A ((4M3H production amount in the case of applying a test substance)<( 1/100 of the 4M3H production amount in the case of applying sterilized water))
Production amount of 4M3H (P. alcaligenes No. 41; 10 ppm test substance): D ((4M3H production amount in the case of applying sterilized water)≦(4M3H production amount in the case of applying a test substance))
Production amount of 4M3H (P. alcaligenes No. 41; 100 ppm test substance): C (( 1/10 of the 4M3H production amount in the case of applying sterilized water)≦(4M3H production amount in the case of applying a test substance)<(4M3H production amount in the case of applying sterilized water))
Production amount of 4M3H (Moraxella sp. 4-1; 10 ppm test substance): C (( 1/10 of the 4M3H production amount in the case of applying sterilized water)≦(4M3H production amount in the case of applying a test substance)<(4M3H production amount in the case of applying sterilized water))
Production amount of 4M3H (Moraxella sp. 4-1; 100 ppm test substance): B (( 1/100 of the 4M3H production amount in the case of applying sterilized water)≦(4M3H production amount in the case of applying a test substance)<( 1/10 of the 4M3H production amount in the case of applying sterilized water))
Production amount of 4M3H (P. glacincola NBRC101053; 10 ppm test substance): C (( 1/10 of the 4M3H production amount in the case of applying sterilized water)≦(4M3H production amount in the case of applying a test substance)<(4M3H production amount in the case of applying sterilized water))
Production amount of 4M3H (P. glacincola NBRC101053; 100 ppm test substance): B (( 1/100 of the 4M3H production amount in the case of applying sterilized water)≦(4M3H production amount in the case of applying a test substance)<( 1/10 of the 4M3H production amount in the case of applying sterilized water))
Production amount of 4M3H (R. slooffiae 13c; 10 ppm test substance): D ((4M3H production amount in the case of applying sterilized water)≦(4M3H production amount in the case of applying a test substance))
Production amount of 4M3H (R. slooffiae 13c; 100 ppm test substance): C (( 1/10 of the 4M3H production amount in the case of applying sterilized water)≦(4M3H production amount in the case of applying a test substance)<(4M3H production amount in the case of applying sterilized water))
Production amount of 4M3H ([2]; 10 ppm test substance): D ((4M3H production amount in the case of applying sterilized water)≦(4M3H production amount in the case of applying a test substance))
Production amount of 4M3H ([2]; 100 ppm test substance): C (( 1/10 of the 4M3H production amount in the case of applying sterilized water)≦(4M3H production amount in the case of applying a test substance)<(4M3H production amount in the case of applying sterilized water))

— patent US20130210061A1, “Method of Screening Damp-Dry Malodor Inhibitor and Method of Evaluating Damp-Dry Malodor Inhibitor” (KAO CORPORATION, priority 2010, published 2013)
